Drawing on PubChem BioAssay AID1645864 (Buhrlage Lab, Dana-Farber Cancer Institute and Novartis …, 2021), this text covers IC50 for 88 compounds.

Molecules are shown by their SMILES. Calls of active or inactive are those of the source.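 Rule for the calls: active = maximal inhibition of USP17 at or above 30% in the confirmation dose-response, a value not among the printed readouts; inactive = the rest.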

For the assay, the target named is Ubiquitin carboxyl-terminal hydrolase 17-like protein 5 (Homo sapiens) (UniProt A8MUK1). The assay is described as follows: ubiquitin-specific protease 17 inhibitors, concentration series, biochemical, verification of primary actives (AID 1645864). As to conditions: purified USP17, ubiquitin-rhodamine cleavage fluorescence, 3 h.
Ubiquitin carboxyl-terminal hydrolase 17-like protein 5 (Homo sapiens), sequence (A8MUK1 whole entry, looked up): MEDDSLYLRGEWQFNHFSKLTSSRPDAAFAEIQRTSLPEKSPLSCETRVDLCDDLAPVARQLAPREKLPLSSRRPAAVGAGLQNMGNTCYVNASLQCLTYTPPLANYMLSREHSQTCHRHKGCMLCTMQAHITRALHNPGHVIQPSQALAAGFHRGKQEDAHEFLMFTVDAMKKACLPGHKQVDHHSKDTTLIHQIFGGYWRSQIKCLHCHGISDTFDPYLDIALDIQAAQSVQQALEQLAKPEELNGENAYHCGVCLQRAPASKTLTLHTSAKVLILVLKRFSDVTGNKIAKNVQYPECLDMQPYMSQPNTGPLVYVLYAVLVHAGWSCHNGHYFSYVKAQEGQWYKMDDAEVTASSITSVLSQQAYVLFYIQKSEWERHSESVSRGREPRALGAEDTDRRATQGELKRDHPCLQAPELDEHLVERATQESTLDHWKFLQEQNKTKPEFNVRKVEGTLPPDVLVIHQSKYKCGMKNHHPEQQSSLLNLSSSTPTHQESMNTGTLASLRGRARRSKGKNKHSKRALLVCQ
As to `CC1CCN(S(=O)(=O)c2ccc(C(=O)Nc3ccc(S(N)(=O)=O)cc3)cc2)CC1`, the IC50 (usually the concentration at which inhibition is half-maximal) is 38.3 µM. With `O=c1cc(CNc2ccc(Br)cc2)nc2nc(-c3ccccc3)[nH]n12`, the IC50 was > 50 µM (inactive). Next, `Cc1ccc(NC(=O)Cn2c(-n3nc(C)cc3C)nc3c(c2=O)CCCC3)c(C)c1`: 32.6 µM; `O=C(Nc1cc(Cl)cc(Cl)c1)c1csnn1`: 22.4 µM; `COc1ccc(Cn2cnc3c([nH]c4ccc(Br)cc43)c2=O)cc1`: 0.778 µM. To `Cc1nc(-c2ccc(NC(=O)N3CCN(c4ccccn4)CC3)cc2)no1` belongs > 50 µM (inactive); to `COCCNC(=O)c1ccnn1-c1ccc2ccc(-c3cccnc3)cn12`, > 50 µM (inactive); to `O=C(/C=C/c1ccc(F)cc1)Nc1ccc2c(c1)OCCO2`, > 50 µM (inactive). To `CC(=O)N1CCCC(c2nc(C)cc(-c3cc(F)ccc3C(=O)O)n2)C1` (stereo not drawn) belongs > 50 µM (inactive); to `CCc1ccc2c(c1)[C@]1(C(=O)N2)[C@@H]2C(=O)N(c3ccc(Cl)cc3Cl)C(=O)[C@@H]2[C@@H]2CCCN21`, > 50 µM (inactive). Take `O=C(Cn1c(=O)n(CC(=O)NC2CCCC2)c(=O)c2ccccc21)Nc1cc(Cl)ccc1Cl`: the IC50 is 4.66 µM.

With `Cc1nnc(NC(=O)C2CCN(c3ccc(S(N)(=O)=O)cc3[N+](=O)[O-])CC2)o1`, the IC50 is 29.5 µM. To `Cc1cccc(C(=O)Nc2cccc(SC(C(=O)Nc3ccc(O)c(C(=O)O)c3)c3ccccc3)c2)c1` (stereo not drawn) belongs 11.5 µM. `COc1ccc(Cl)cc1N1C(=O)[C@H]2[C@@H](C1=O)[C@]1(C(=O)Nc3c(C)cc(C)cc31)N1CCC[C@@H]21`: the IC50 was > 50 µM (inactive).

Take `CCCc1nc2sc3c(NCCCN4CCOCC4)ncnc3c2c2c1CCC2`: the IC50 was > 50 µM (inactive).

With `CC(CCc1ccccc1)NC(=O)C(=O)c1cn(CC(=O)N2CCOCC2)c2ccccc12` (stereo not drawn), the IC50 was > 50 µM (inactive). To `COc1cc(Cl)ccc1Nc1ncc(C(=O)Nc2cc(OC)c(OC)c(OC)c2)c2ccccc12` belongs under 0.05 µM. To `CC(C)(C)C(=O)Nc1ccc(C(=O)Nc2cccc(-c3nnc(-c4ccccc4)o3)c2)cc1` belongs 5.27 µM.

As for `COc1cccc(-c2cc(C(=O)Nc3cc(C)n(Cc4ccc(Cl)cc4)n3)no2)c1`, the IC50 is 4.67 µM. To `COc1ccc(N2C(=O)[C@@H]3[C@H]4c5ccccc5C=CN4C(C(=O)Nc4ccc5c(c4)OCO5)[C@@H]3C2=O)cc1` (stereo partly drawn) belongs > 50 µM (inactive). To `O=C(c1ccco1)N1CCC2(CC1)CC1(CO2)Nc2ccccc2-n2cccc21` (stereo not drawn) belongs 20.6 µM; to `Cc1ccc(NCc2cc3c(C(C)(C)C)nn(-c4ccc(Cl)cc4)c3[nH]c2=O)cc1`, 15.7 µM.

On to `O=C(NCc1ccc(F)cc1)N1CCC2(C1)Nc1cccnc1NC2=NCc1ccccc1` (stereo not drawn), for which the IC50 is > 50 µM (inactive). Next, `COc1ccccc1CNC(=O)CCCCn1c(=O)c2ccccc2n(Cc2ccccc2C#N)c1=O`: 13.1 µM. Next, `CC(=O)N1Cc2ccccc2CC2(CCCN(CC3CCOCC3)C2)C1` (stereo not drawn): > 50 µM (inactive). To `COc1ccc(NC(=O)C2CCN(c3cncnc3N(C)C)CC2)cc1OC` belongs > 50 µM (inactive); to `Cc1c(C(=O)Nc2cccc(C(F)(F)F)c2)cnn1-c1ccccn1`, 34.4 µM. Turning to `CC1=C(c2ccc(C)c(C)c2)S(=O)(=O)NC1=NCC(=O)NCCCc1ccccc1`, the IC50 is 12.5 µM. To `Cc1noc(C)c1S(=O)(=O)Nc1ccc(C(=O)Nc2ccc3c(c2)OCCO3)cc1` belongs > 50 µM (inactive). In the case of `COc1ccc(C(=O)NCC(c2ccc3c(c2)CCCN3C)N2CCCC2)cc1` (stereo not drawn), the IC50 is > 50 µM (inactive). To `O=C(Cc1noc2ccccc12)NCC(=O)Nc1ccc(Cl)cc1` belongs 18.1 µM. To `Cc1nc2cc(C(=O)NCCC3=CCCCC3)ccc2n1-c1cccc(F)c1` belongs > 50 µM (inactive); to `NS(=O)(=O)c1ccc(NC(=O)Cn2cnc3cc([N+](=O)[O-])ccc3c2=O)cc1`, 18 µM; to `CCCCNC(=O)c1cc2cccnc2n(Cc2ccccc2)c1=O`, > 50 µM (inactive). To `N#C/C(=C\c1ccc(OCc2cccc(C(=O)O)c2)cc1)c1ccc(F)cc1` belongs 29.5 µM; to `Cn1cc(-c2noc(Cc3cccc(C(F)(F)F)c3)n2)ccc1=O`, > 50 µM (inactive); to `Cc1nc2sc(C(=O)Nc3ccccc3Br)c(N)c2c(C)c1C`, 1.12 µM. With `O=S(=O)(c1cccc(F)c1)N1CCc2nc3ccccc3n2CC1`, the IC50 was 3.12 µM.

Turning to `Cn1ccnc1CN1C[C@H]2CCN(c3ncccn3)C[C@H]2C1`, the IC50 is > 50 µM (inactive). To `Cc1cccc(CNC(=O)C2CCCN(S(=O)(=O)Cc3ccc(F)cc3)C2)c1` (stereo not drawn) belongs 19.1 µM; to `CCCC1Cc2c(sc3nc(SCC)nc(N)c23)CO1` (stereo not drawn), 7.76 µM. Next, `COc1ccc(OC)c(-c2c(C#N)c(C)nc3c2N2CCC3CC2)c1`: 6.92 µM; `O=C(CN1C(=O)C2CCCC2=Nc2ccccc21)Nc1cc(F)ccc1F` (stereo not drawn): 13.9 µM; `CC(OC(=O)c1c2c(nc3ccccc13)CCCCC2)C(=O)Nc1ccc2ccccc2c1` (stereo not drawn): 3.81 µM. `N#Cc1ccccc1OCc1csc(-c2ccccc2)n1`: the IC50 was > 50 µM (inactive). Next, `CCN1CCCC1CN(Cc1cc2cc(OC)ccc2[nH]c1=O)C(=O)NCc1ccccc1` (stereo not drawn): > 50 µM (inactive); `COc1ccc(CCC(=O)Nc2ccc3c(c2)Sc2ncccc2C(=O)N3C)cc1`: > 50 µM (inactive); `N#Cc1ccccc1Cn1c(=O)n(CCCCC(=O)NCCc2ccccc2)c(=O)c2ccccc21`: 10 µM.

With `COC(=O)c1ccc2c(=O)n(CCCCCC(=O)NCCc3ccc(S(N)(=O)=O)cc3)c(=O)[nH]c2c1`, the IC50 was 5.08 µM.

On to `COc1ccc(-c2cc(-c3ccc(F)cc3)[nH]c(=O)c2C#N)cc1`, for which the IC50 was 30.3 µM.

Turning to `O=C(c1cscn1)N1CCC2(CC1)CC1(CO2)Nc2ccccc2-n2cccc21` (stereo not drawn), the IC50 is > 50 µM (inactive). Next, `COCC(=O)Nc1cc(F)c2nc(N3CCOCC3)ccc2c1`: 33.8 µM; `COc1cccc2c1NC(=O)C21CCN(C(=O)Nc2cccc(C)c2)CC1`: 20.1 µM. To `CCN(CC)c1nc(F)c2c(c1F)S(=O)(=O)CCN2Cc1cccnc1` belongs > 50 µM (inactive). To `Cc1ccc(CNC(=O)c2ccc(N3C(=O)[C@@H]4Cc5ccccc5CN4C3=O)cc2)cc1` belongs 34.2 µM; to `Nc1ccc(F)c(NS(=O)(=O)c2ccccc2)c1`, > 50 µM (inactive); to `COc1ccc(C(=O)NCCc2nnc3ccc(SCC(=O)NCc4ccc(F)cc4)nn23)cc1`, 18.5 µM.

As to `Cc1cc(=O)n(C)c2c(O)c3c(cc12)c(C)cc(=O)n3C`, the IC50 was 0.155 µM. Next, `Cc1ccc(NC(=O)CSc2nc3c(cc2C#N)C(=O)CCC3)cc1`: 29.8 µM; `COc1ccc(NC(=O)C2[C@@H]3C(=O)N(C4CCCCC4)C(=O)[C@@H]3[C@H]3c4ccccc4C=CN23)cc1` (stereo partly drawn): 46.9 µM; `Cc1ccc([N+](=O)[O-])cc1S(=O)(=O)Nc1cc2sc(=O)oc2c2ccccc12`: 3.44 µM.

Regarding `CCCCNc1nc2c(-c3ccccc3)nnn2c2ccccc12`, the IC50 is 3.08 µM. Take `CN1CCN(c2ncnc3c2oc2ccc(Cl)cc23)CC1`: the IC50 is > 50 µM (inactive).

In the case of `Cc1ccccc1OCCSc1nc2ccccc2n1CC(=O)NC1CC1`, the IC50 was 22.8 µM. Next, `COc1cc(/C=C/C(=O)OCC(=O)Nc2ccc([N+](=O)[O-])cc2OC)ccc1O`: 19.9 µM.

`O=C(Nc1ccccc1)c1nc(-c2cn(Cc3ccc(F)cc3)nn2)no1`: the IC50 was 42.4 µM. To `COc1ccc(C2CC(c3ccccc3)N(C(=O)C3CC3)c3ncnn32)cc1` (stereo not drawn) belongs > 50 µM (inactive); to `Cc1nn(Cc2ccccc2)c2sc(C(=O)Nc3nc4ccccc4[nH]3)cc12`, 23.5 µM. Next, `CC1Cc2ccccc2N1C(=O)Cn1c(=O)cc(O)c2ccccc21` (stereo not drawn): > 50 µM (inactive).

On to `CCn1c(=N)n(CCOc2ccc(F)cc2)c2ccccc21`, for which the IC50 is > 50 µM (inactive). For the compound `O=C1C=C(O)c2c(O)cccc2C1=O`, the IC50 is 11.9 µM.

As to `Fc1ccc(-c2noc(-c3nnc(NCc4cccnc4)c4ccccc34)n2)cc1`, the IC50 was 2.59 µM. Next, `CN(C)c1cccc(C(=O)Nc2cc(-c3cccnc3)no2)c1`: 26.9 µM; `COc1ccc(/C=C/c2ccnc3nc(-n4cccc4)nn23)cc1`: > 50 µM (inactive); `O=C(Nc1cccc(-c2noc(C3CCC3)n2)c1)C1CC(=O)N(c2ccccc2)C1` (stereo not drawn): 14.1 µM. For `Cc1ccc(NC(=O)Cc2nnc3cc(-c4nc(C)no4)ccn23)cc1`, the IC50 is 18.7 µM.

`Cc1ccc(C)c(-c2cc3c(=O)n(Cc4noc(CN5CCCCC5)n4)ccn3n2)c1`: the IC50 was > 50 µM (inactive). Next, `Cc1ccc(C)c(-n2c(C)cc(/C=C3/C(=N)N4C(c5ccc(F)cc5)=CSC4=NC3=O)c2C)c1`: > 50 µM (inactive); `O=C(COc1ccc(Cl)cc1)N1CCc2cc3ccccc3nc21`: 2.41 µM; `O=C1N(Cc2ccc(F)cc2)CCN1c1ccc(C(F)(F)F)cn1`: > 50 µM (inactive). As to `CCn1cc(-c2nc(-c3ccccc3)no2)c(=O)c2cc(F)ccc21`, the IC50 was 2.34 µM. To `COc1ccc(CNC(=O)CN2C(=O)C(C)=C(c3ccc(C)cc3)S2(=O)=O)cc1` belongs > 50 µM (inactive); to `Cc1sc2ncn3c(=O)n(CC(=O)Nc4ccc(F)c(Cl)c4)nc3c2c1C`, 2.82 µM; to `COc1ccc(CNC(=O)CN2C(=O)CC(c3ccccc3)=Nc3ccccc32)cc1`, 4.42 µM. To `O=C(CCCCn1c(=O)c2ccccc2n(Cc2ccccc2F)c1=O)NCCc1ccccc1` belongs 16.8 µM. Next, `Cc1cc(C)c2cc(C(=O)NC3CCN(Cc4ccccc4)CC3)[nH]c2c1`: 14.7 µM; `CCc1ccc(NC(=O)CN=C2NS(=O)(=O)C(c3ccc(CC)cc3)=C2C)cc1`: 32.5 µM. Turning to `Cc1ccc2cc(CNc3ccccc3)c(=O)n(CC(=O)Nc3ccccc3C)c2c1`, the IC50 is 9.1 µM.
